How the values were obtained:
[1] = molecular target: T1, Ephrin type-A receptor 1 (Homo sapiens, UniProt P21709); test: Displacement of biotinylated ephrin-A1-Fc from human EphA1 Fc preincubated for 1 hr followed by ephrin-A1-FC addition and measured after 4 hrs by ELISA
T1 sequence (P21709 whole entry): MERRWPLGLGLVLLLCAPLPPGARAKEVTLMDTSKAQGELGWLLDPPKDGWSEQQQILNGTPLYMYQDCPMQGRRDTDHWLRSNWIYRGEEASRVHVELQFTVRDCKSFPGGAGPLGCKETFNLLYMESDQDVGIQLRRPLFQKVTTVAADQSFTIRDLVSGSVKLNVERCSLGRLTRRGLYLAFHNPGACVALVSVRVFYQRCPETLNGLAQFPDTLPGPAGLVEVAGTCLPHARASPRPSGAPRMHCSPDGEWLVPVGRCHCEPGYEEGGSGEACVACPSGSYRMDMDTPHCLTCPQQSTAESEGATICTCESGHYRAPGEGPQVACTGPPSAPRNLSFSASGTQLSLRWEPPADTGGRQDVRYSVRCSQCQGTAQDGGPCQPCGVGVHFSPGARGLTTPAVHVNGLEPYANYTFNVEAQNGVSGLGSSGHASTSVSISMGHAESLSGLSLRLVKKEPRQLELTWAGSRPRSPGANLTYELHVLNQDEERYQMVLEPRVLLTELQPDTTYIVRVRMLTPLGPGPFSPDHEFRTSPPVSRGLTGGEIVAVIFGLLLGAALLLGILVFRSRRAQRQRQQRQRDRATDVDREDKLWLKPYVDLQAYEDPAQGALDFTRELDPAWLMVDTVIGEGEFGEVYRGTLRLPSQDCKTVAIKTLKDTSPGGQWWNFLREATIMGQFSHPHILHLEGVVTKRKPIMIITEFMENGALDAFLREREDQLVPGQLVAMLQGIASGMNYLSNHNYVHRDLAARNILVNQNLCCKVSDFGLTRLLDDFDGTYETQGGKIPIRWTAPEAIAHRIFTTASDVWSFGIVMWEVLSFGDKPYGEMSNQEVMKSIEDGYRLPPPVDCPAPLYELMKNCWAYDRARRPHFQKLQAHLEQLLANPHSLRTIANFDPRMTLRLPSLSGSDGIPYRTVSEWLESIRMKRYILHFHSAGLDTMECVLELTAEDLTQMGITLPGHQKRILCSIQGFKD

[2] = molecular target: T2, Ephrin type-A receptor 3 (Mus musculus, UniProt P29319); test: Displacement of biotinylated ephrin-A1-Fc from mouse EphA3 Fc preincubated for 1 hr followed by ephrin-A1-FC addition and measured after 4 hrs by ELISA
T2 sequence (P29319 whole entry): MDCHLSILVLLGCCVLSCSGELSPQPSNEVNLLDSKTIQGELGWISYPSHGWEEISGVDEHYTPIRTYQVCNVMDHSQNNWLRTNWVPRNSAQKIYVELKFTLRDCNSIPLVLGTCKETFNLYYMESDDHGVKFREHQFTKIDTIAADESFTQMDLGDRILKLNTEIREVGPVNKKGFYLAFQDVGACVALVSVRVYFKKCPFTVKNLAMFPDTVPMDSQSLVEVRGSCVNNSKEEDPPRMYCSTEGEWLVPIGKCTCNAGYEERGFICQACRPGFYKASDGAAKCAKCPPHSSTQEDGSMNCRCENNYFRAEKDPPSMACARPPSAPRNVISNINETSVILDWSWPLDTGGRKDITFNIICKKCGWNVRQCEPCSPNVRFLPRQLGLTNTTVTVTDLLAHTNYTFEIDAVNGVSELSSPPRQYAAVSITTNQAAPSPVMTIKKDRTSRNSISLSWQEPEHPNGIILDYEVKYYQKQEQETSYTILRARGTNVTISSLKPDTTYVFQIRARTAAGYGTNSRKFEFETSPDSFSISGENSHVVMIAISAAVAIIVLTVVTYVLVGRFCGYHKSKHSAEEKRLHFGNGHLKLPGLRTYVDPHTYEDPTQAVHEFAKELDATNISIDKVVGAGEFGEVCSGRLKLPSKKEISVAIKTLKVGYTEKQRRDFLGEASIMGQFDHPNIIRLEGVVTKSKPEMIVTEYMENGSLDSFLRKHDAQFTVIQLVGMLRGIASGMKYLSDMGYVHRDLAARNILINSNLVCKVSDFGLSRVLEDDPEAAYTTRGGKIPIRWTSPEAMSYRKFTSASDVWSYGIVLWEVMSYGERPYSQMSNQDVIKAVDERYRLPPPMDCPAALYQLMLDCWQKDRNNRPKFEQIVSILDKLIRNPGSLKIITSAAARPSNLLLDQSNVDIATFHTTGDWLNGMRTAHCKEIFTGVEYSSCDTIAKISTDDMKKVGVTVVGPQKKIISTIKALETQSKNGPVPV

[3] = system: HUVEC; test: Cytotoxicity against HUVEC cells upto 30 uM after 16 hrs by MTT assay; assay type: cell-based; settings: human
[4] = molecular target: T3, Ephrin type-A receptor 8 (Mus musculus, UniProt O09127); test: Displacement of biotinylated ephrin-A1-Fc from mouse EphA8 Fc preincubated for 1 hr followed by ephrin-A1-FC addition and measured after 4 hrs by ELISA
T3 sequence (O09127 whole entry): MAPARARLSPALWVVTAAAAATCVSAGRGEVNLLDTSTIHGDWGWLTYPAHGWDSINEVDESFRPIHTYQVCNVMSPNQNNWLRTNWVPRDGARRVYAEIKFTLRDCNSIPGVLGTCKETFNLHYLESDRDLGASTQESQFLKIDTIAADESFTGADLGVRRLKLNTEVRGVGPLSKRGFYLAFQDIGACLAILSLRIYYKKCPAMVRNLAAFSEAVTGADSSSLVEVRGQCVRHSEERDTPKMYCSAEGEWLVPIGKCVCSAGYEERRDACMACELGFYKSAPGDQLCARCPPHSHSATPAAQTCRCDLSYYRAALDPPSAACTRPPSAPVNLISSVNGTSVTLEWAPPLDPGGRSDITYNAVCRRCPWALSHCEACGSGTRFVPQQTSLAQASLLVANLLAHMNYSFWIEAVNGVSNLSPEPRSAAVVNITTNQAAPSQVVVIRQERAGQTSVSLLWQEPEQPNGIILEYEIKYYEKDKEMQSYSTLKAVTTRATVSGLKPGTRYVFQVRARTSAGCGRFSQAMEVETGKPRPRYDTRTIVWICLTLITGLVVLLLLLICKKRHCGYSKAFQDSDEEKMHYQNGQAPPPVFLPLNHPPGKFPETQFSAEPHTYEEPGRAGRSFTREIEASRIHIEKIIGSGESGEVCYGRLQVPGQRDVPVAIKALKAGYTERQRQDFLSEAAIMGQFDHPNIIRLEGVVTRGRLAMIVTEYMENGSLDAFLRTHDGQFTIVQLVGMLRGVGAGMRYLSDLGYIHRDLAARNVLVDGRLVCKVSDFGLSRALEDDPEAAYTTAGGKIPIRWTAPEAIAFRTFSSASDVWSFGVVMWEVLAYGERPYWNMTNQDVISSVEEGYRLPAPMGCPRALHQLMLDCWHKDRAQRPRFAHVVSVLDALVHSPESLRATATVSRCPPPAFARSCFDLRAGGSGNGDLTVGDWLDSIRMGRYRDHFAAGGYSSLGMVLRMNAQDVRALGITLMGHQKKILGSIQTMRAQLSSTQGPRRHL

SMILES: CCNC(=O)O[C@@H]1CC[C@@]2(C)[C@H](CC[C@@H]3[C@@H]2CC[C@]2(C)[C@@H]([C@H](C)CCC(=O)N[C@H](CC(=O)O)Cc4c[nH]c5ccccc45)CC[C@@H]32)C1
- IC50 [1]: > 30 µM
- IC50 [2]: 4.5 µM
- Activity [3]: Non-Toxic
- IC50 [4]: 7.7 µM

— ChEMBL document CHEMBL4680187, “Optimization of EphA2 antagonists based on a lithocholic acid core led to the identification of UniPR505, a new 3α-carbamoyloxy derivative with antiangiogenetic properties” (Eur J Med Chem, 2020)
